Data reported in publication PMC11054337, “Identification of Leishmania donovani PEX5-PTS1 Interaction Inhibitors through Fluorescence Polarization-Based High-Throughput Screening” (Molecules, 2024).
“And” between values parts separate entries of the source, which are not always exact repeats. Equal entries are not always repeated. Where two headings read alike, the source gives them in different places. No end group written: not given here.

What was measured:
[1] = test system: L. donovani promastigotes; assay: L. donovani promastigote growth inhibition (resazurin); type: cell-based, Leishmania donovani; settings: for IC50: 72 h exposure, three independent replicates, read-out: L. donovani IC50 ± SD
Experimental: (§1) All the restriction enzymes used in this study were sourced from New England BioLabs (240 County Road Ipswich, Ipswich, MA, USA). The PTS1 peptides, both unlabeled and fluorescently labeled at the N-terminus with fluorescein isothiocyanate (FITC), were purchased from Peptron (Daejeon, Republic of Korea). All the inhibitors were purchased from Enamine (Kyiv, Ukraine). L. donovani strain MHOM/SD/62/1S-CL2D and L. major strain LV39 (MRHO/Sv/59/P) were cultured in their extracellular promastigote forms. The parasite was cultured at 28 °C using M199 medium (Sigma-Aldrich, St. Louis, MO, USA) supplemented with 40 mM HEPES, 0.1 mM adenine, 0.0001% biotin, and 4.62 mM NaHCO3, along with additional supplements of hemin and xanthine. The T. brucei brucei Lister strain 427 in its bloodstream form (BSF) was cultured at 37 °C in a controlled atmosphere consisting of 5% CO2 in HMI-9 medium enriched with 10% fetal bovine serum (FBS), 100 µg/mL penicillin, and 100 µg/mL streptomycin. The parasites were maintained through only 10 passages for this study.
(§2) Briefly, the assays were conducted in 384-well plates, each well was seeded with 5 × 10^4 parasites, and the compounds were exposed for 72 h. The compounds were tested in dose-diluted format, starting from 100 μM with a two-fold dilution across 10 points. Subsequently, resazurin was added to each well to achieve a final concentration of 200 μM. The plates were then incubated for an additional 5 h before fixation. The assay results were recorded using a Victor3 plate reader (PerkinElmer, Shelton, CT, USA). For the assessment against L. donovani intracellular amastigotes, phorbol 12-myristate 13-acetate-treated THP-1 cells were seeded at 0.8 × 10^4 cells per well in a 384-well plate in RPMI-1640 complete medium supplemented with 10% FBS. After 48 h, the infection was carried out using L. donovani promastigotes with a multiplicity of infection of 10:1. The infected cells were treated with compounds for 72 h, then the cells and parasites were washed, stained with 5 µM 4′,6-diamidino-2-phenylindole (DAPI), and fixed with 4% paraformaldehyde. Images were acquired using Operetta® CLS™ (PerkinElmer, Shelton, CT, USA), and the numbers of parasites and host cells were quantified using Columbus™ software version 2.8 (PerkinElmer, Shelton, CT, USA).
(§3) All half-maximal inhibitory concentration (IC50) values were determined based on data obtained from three independent experiments. The dose–response curves were generated and analyzed using GraphPad Prism 6 software (GraphPad Software, San Diego, CA, USA). For the analysis, a sigmoidal dose–response equation was employed, incorporating a variable hill slope option.

[2] = test system: L. major promastigotes; assay: L. major promastigote growth inhibition (resazurin); type: cell-based, Leishmania major; settings: for IC50: 72 h exposure, three independent replicates, read-out: L. major IC50 ± SD
Experimental: as §1, §2, §3

[3] = test system: T. brucei BSF; assay: T. brucei BSF growth inhibition (resazurin); type: cell-based, Trypanosoma brucei; settings: for IC50: Trypanosoma brucei, blood stream form, 72 h exposure, three independent replicates, read-out: T. brucei IC50 ± SD; for Growth inhibition of T. brucei (in words): BSF
Experimental: as §1, §2, §3

[4] = target: T1, LdPEX5-PTS1 interaction (Leishmania donovani, UniProt A0A3S7X906); assay: biochemical; type: binding; settings: 1 µM LdPEX5, 5 nM FITC-SGAGSKL
T1 construct: encoding LdPEX5CT, corresponding to 322 amino acids (AF198051.1: 303-625), was synthesized; 6xHis (pET15b) (N); made in house; host or cells: Escherichia coli BL21 (DE3)
T1 sequence (A0A3S7X906 entry or part of it): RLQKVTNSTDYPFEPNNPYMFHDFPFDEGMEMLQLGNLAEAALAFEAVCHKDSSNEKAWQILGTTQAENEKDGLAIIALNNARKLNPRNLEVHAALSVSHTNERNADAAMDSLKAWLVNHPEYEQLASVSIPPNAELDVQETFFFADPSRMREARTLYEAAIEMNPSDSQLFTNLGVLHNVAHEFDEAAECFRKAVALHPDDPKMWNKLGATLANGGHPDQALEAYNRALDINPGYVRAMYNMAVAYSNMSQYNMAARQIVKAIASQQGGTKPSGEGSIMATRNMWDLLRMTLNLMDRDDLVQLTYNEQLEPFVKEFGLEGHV
Experimental: HTS using FP was conducted to identify inhibitors of the LdPEX5-PTS1 interaction. The screening utilized an in-house compound library comprising 51,406 compounds with diverse structural profiles. All compounds were initially solubilized in 100% DMSO with a concentration of 2 mM, and the final testing concentration in the assay was set at 20 μM. DMSO served as the negative control, while unlabeled PTS1 peptide (TRYPAKL) was used as the positive control. The assay mixture included FITC-SGAGSKL peptide and LdPEX5 at final concentrations of 5 nM and 1 μM, respectively. The reaction plates with compounds were incubated for 1 h at room temperature before FP signal detection. Single-point inhibition assays were performed, and the Z’ factor was employed to assess the quality of the assay. The Z’ factor was calculated using the formula Z′ = 1 − 3(σp + σn)/(μp − μn), where σp and σn are the standard deviations of the positive and negative controls, respectively, and μp and μn represent their respective mean values.
as §3

[5] = test system: L. donovani intracellular amastigotes; assay: L. donovani intracellular amastigote assay in THP-1 cells (image-based); type: cell-based, Leishmania donovani; settings: infected THP-1 cells, 72 h treatment
Experimental: as §2

[6] = 1 h, three independent replicates, read-out: LdPEX5-PTS1 Inhibition IC50 ± SD
[7] = IC50 of unlabeled PTS1 peptides, peptide from 60 µM half dilution 10 points

Row | IC50 ([1]; Leishmania donovani, 72 h) [µM] | IC50 ([2]; Leishmania major, 72 h) [µM] | IC50 [3] [µM] | IC50 [4, 6] | Compound | other results
1 | 0.42 ± 0.03 |  |  |  | C[C@@H]1[C@H](O)[C@@H](C)/C=C/C=C/C=C/C=C/C=C/C=C/C=C/[C@H](O[C@@H]2O[C@H](C)[C@@H](O)[C@H](N)[C@@H]2O)C[C@@H]2O[C@](O)(C[C@@H](O)C[C@@H](O)[C@H](O)CC[C@@H](O)C[C@@H](O)CC(=O)O[C@H]1C)C[C@H](O)[C@H]2C(=O)O [Amphotericin B, reference compound] | 
2 |  | 7.37 ± 1.67 |  |  | CCCCCCCCCCCCCCCCOP(=O)([O-])OCC[N+](C)(C)C [Miltefosine, reference compound] | 
3 | > 50 | > 50 | > 50 | 23.6 ± 0.86 µM | CN(C)c1ccc(Nc2cnc3ccccc3n2)cn1 [P02] | 
4 | > 50 | > 50 | 12.1 ± 2.19 | 14.6 ± 0.76 µM | Cn1ncc(-c2nc3cc(S(N)(=O)=O)ccc3[nH]2)n1 [P04, 2-(2-methyl-2H-1,2,3-triazol-4-yl)-1H-benzo[d]imidazole-5-sulfonamide] | 
5 | > 50 | > 50 | > 50 | 3.89 ± 0.15 µM | COc1ccc(NC(=O)C2(S(=O)(=O)c3ccc(Cl)cc3)CCCC2)cn1 [P08, 1-((4-chlorophenyl)sulfonyl)-N-(6-methoxypyridin-3-yl)cyclopentane-1-carboxamide] | 
6 | 3.3 ± 0.23 | > 50 | > 50 | ~16 µM and 16.2 µM | O=C(Nc1nc2ccccc2nc1N1CCCC1)c1ccc(Cn2cccn2)cc1 [P10, 4-((1H-pyrazol-1-yl)methyl)-N-(3-(pyrrolidin-1-yl)quinoxalin-2-yl)] | Activity against intracellular amastigote form of Leishmania [5]: inactive; Growth inhibition of L. major (in words) [2]: not active; Growth inhibition of T. brucei (in words) [3]: not active
7 | > 50 | > 50 | > 50 | ~16 µM and 16.9 µM | Cc1ccc(C(=O)Nc2nc3ccccc3nc2N2CCCC2)cc1S(C)(=O)=O [P16] | Growth inhibition of L. donovani (in words) [1]: not able to inhibit the growth; Growth inhibition of L. major (in words) [2]: not able to inhibit the growth; Growth inhibition of T. brucei (in words) [3]: not able to inhibit the growth
8 | > 50 | > 50 | > 50 | 25.2 ± 0.89 µM | Cc1cc(C(=O)Nc2cc(C(N)=O)ccc2N2CCCCC2)c2c(C)noc2n1 [P17] | 
9 | 19.2 ± 2.65 | 12.2 ± 1.36 | 3.06 ± 0.38 | 16.5 ± 0.79 µM | CNc1ccc(Nc2ncnc3sccc23)cn1 [P20, N^2-methyl-N^5-(thieno [2,3-d]pyrimidin-4-yl)pyridine-2,5-diamine] | Growth inhibition of L. donovani (in words) [1]: inhibitory activity; IC50 [1]: 12.2 ± 1.36 µM; Activity against intracellular amastigote form of Leishmania [5]: inactive; Growth inhibition of L. major (in words) [2]: inhibitory activity; IC50 [2]: 19.2 ± 2.65 µM; Growth inhibition of T. brucei (in words) [3]: inhibitory activity
10 | > 50 | > 50 | > 50 | 24.5 ± 1.05 µM | CCc1ncc2c(n1)CN(Cc1cc(=O)n3cccc(C)c3n1)CC2 [P21] | 
11 | > 50 | > 50 | > 50 | 16 ± 0.96 µM | CCOc1ccc(NC2CCN(Cc3cscn3)CC2)cn1 [P28] | 
12 |  |  | 0.69 ± 0.05 |  | N=C(N)c1ccc(OCCCCCOc2ccc(C(=N)N)cc2)cc1 [Pentamidine, reference compound] | 
13 |  |  |  |  | ARLASKV [ARLASKV, reference compound] | IC50 [4, 7]: > 60 µM
14 |  |  |  |  | SGAGSKL [SGAGSKL, reference compound] | IC50 [4, 7]: 10.7 µM
15 |  |  |  |  | TRYPAKL [TRYPAKL, reference compound] | IC50 [4, 7]: 3.61 µM
